This is an account of results in US4981854A, “A-aryl-4-quinolone-3-carboxylic acids” (Bayer Aktiengesellschaft, priority 1985, dated 1991).

Structures are written as SMILES. In brackets after ≈: the same amount, converted by molar mass.

Holding throughout (assay): Minimum inhibitory concentration, agar dilution test (Denley Multipoint inoculator, Isosensitest medium)
Holding throughout (format): cell-based
(In agar dilution the substance is mixed into plates at graded concentrations.)

One test relates to Pseudomonas aerug. W. An excerpt:
(§1) The MIC values of some of the compounds according to the invention are given in the following table. | Minimum inhibitory concentration mcg/ml^(x) | ^(x) Agar dilution test/Denley Multipoint inoculator Isosensitest | medium

In another test the test system is Proteus vulg. 1017.
Text: as §1

For a further test, the system named is Staphylococcus aur. 133.
Text: as §1

In another test the test system is Klebsiella pneum. 63.
Text: as §1

A further test relates to E. coli 455/7. The settings on record: Escherichia coli.
Text: as §1

In the next test the test system is E. coli Neum. Conditions: Escherichia coli.
Text: as §1

The test system of test [1] is Streptococcus faecalis 27101. The settings on record: Enterococcus faecalis.
Text: as §1

A further test concerns Klebsiella pneum. 8085.
Text: as §1

Another test has as its system Staphylococcus aur. 1756.
Text: as §1

In a further test the test system is E. coli 4418. The settings on record: Escherichia coli.
Text: as §1

The next test has as its system Klebsiella spec. 6179.
Text: as §1

For orientation: MIC means the lowest concentration found to suppress growth. A low value points to greater potency. For the compound `CN1CCN(c2c(F)cc3c(=O)c(C(=O)O)cn(-c4ccc(F)cc4)c3c2F)CC1` [Example 1, 6,8-Difluoro-1,4-dihydro-4-oxo-1-(4-fluorophenyl)-7-(4-methyl-1-piperazinyl)-quinoline-3-carboxylic acid], the minimum inhibitory concentration (MIC) amounted to 8 µg/mL (≈ 19.2 µM) in the test with Pseudomonas aerug. W.; 0.5 µg/mL (≈ 1.2 µM) with Proteus vulg. 1017; 0.5 µg/mL (≈ 1.2 µM) in the test on Staphylococcus aur. 133; 0.25 µg/mL (≈ 0.599 µM) against Klebsiella pneum. 63; 16 µg/mL (≈ 38.3 µM) against E. coli 455/7; 0.125 µg/mL (≈ 0.299 µM) in the test with E. coli Neum.. In addition, the MIC in [1] was determined as 4 µg/mL (≈ 9.58 µM); in the test with Klebsiella pneum. 8085, 0.125 µg/mL (≈ 0.299 µM); with Staphylococcus aur. 1756, 0.5 µg/mL (≈ 1.2 µM); in the test on E. coli 4418, 0.25 µg/mL (≈ 0.599 µM); with Klebsiella spec. 6179, 0.5 µg/mL (≈ 1.2 µM).

On to `CC1CN(c2c(F)cc3c(=O)c(C(=O)O)cn(-c4ccc(F)cc4)c3c2F)CCN1` (centres unmarked) [Example 2, 6,8-Difluoro-1,4-dihydro-4-oxo-1-(4-fluorophenyl)-7-(3-methyl-1-piperazinyl)-quinoline-3-carboxylic acid], for which the minimal inhibitory concentration (MIC) against Pseudomonas aerug. W. is 4 µg/mL (≈ 9.58 µM); against Proteus vulg. 1017 it was 0.25 µg/mL (≈ 0.599 µM); against Staphylococcus aur. 133 it was 0.5 µg/mL (≈ 1.2 µM); with Klebsiella pneum. 63, 0.125 µg/mL (≈ 0.299 µM); with E. coli 455/7 it was 8 µg/mL (≈ 19.2 µM); in the test on E. coli Neum. it was about 0.015 µg/mL (≈ 0.0359 µM). Moreover, the MIC is 4 µg/mL (≈ 9.58 µM) in [1]; 0.06 µg/mL (≈ 0.144 µM) against Klebsiella pneum. 8085; 0.5 µg/mL (≈ 1.2 µM) against Staphylococcus aur. 1756; 0.125 µg/mL (≈ 0.299 µM) in the test on E. coli 4418; 0.25 µg/mL (≈ 0.599 µM) with Klebsiella spec. 6179.

Take `O=C(O)c1cn(-c2ccc(F)cc2)c2c(F)c(N3CCNCC3)c(F)cc2c1=O` [Example 3, 6,8-Difluoro-1,4-dihydro-4-oxo-1-(4-fluorophenyl)-7-(1-piperazinyl)-quinoline-3-carboxylic acid]: the minimum inhibitory concentration (MIC) was 1 µg/mL (≈ 2.48 µM) in the test with Pseudomonas aerug. W.; 0.03 µg/mL (≈ 0.0744 µM) against Proteus vulg. 1017; 0.25 µg/mL (≈ 0.62 µM) with Staphylococcus aur. 133; 0.06 µg/mL (≈ 0.149 µM) in the test on Klebsiella pneum. 63; 8 µg/mL (≈ 19.8 µM) against E. coli 455/7; about 0.015 µg/mL (≈ 0.0372 µM) against E. coli Neum.. Moreover, the minimal inhibitory concentration (MIC) was 4 µg/mL (≈ 9.92 µM) in [1]; about 0.015 µg/mL (≈ 0.0372 µM) against Klebsiella pneum. 8085; 0.25 µg/mL (≈ 0.62 µM) against Staphylococcus aur. 1756; 0.06 µg/mL (≈ 0.149 µM) in the test on E. coli 4418; 0.06 µg/mL (≈ 0.149 µM) in the test on Klebsiella spec. 6179.

With `CCn1cc(C(=O)O)c(=O)c2cc(F)c(N3CCNCC3)cc21` [Norfloxacin, reference compound], the MIC against Pseudomonas aerug. W. is 2 µg/mL (≈ 6.26 µM); against Proteus vulg. 1017 it was 0.06 µg/mL (≈ 0.188 µM); against Staphylococcus aur. 133, 1 µg/mL (≈ 3.13 µM); in the test on Klebsiella pneum. 63, 0.25 µg/mL (≈ 0.783 µM); against E. coli 455/7 it was 8 µg/mL (≈ 25.1 µM); in the test with E. coli Neum. it was 0.125 µg/mL (≈ 0.391 µM). For the same compound, the MIC in test [1] was found to be 1 µg/mL (≈ 3.13 µM); with Klebsiella pneum. 8085 it was 0.25 µg/mL (≈ 0.783 µM); in the test with Staphylococcus aur. 1756 it was 1 µg/mL (≈ 3.13 µM); in the test with E. coli 4418 it was 0.125 µg/mL (≈ 0.391 µM); with Klebsiella spec. 6179, 2 µg/mL (≈ 6.26 µM).
